Experimental data as given in patent US20150050368A1, “METHOD FOR PRODUCING A PLANT EXTRACT FROM DESMODIUM AND ITS EXTRACT THEREOF” (priority 2012, published 2015).

Assays:
3T3-L1 adipocytes = conditions: cited from earlier work
[1] = tested on: LPS-induced dendritic bone marrow cells; conditions: cited from earlier work
[2] = tested on: older, non-diabetic patients; conditions: intake for 6 weeks; cited from earlier work
[3] = tested on: liver injury induced by galactosamine; test: preventive effect of Desmodium adscendens decoction against galactosamine-induced liver injury in rats; type: in vivo, Sprague Dawley rats; conditions: 48 h after D-galactosamine 650 mg/kg IP; oral gavage; Desmodium equivalent to 20 or 5 mg/kg D-pinitol, D-pinitol 20 mg/kg, silymarin 20 mg/kg
From the text: As far as the in vivo evaluation of the hepato-protective effect of Desmodium adscendens decoction is concerned, D-pinitol has a hepato-protective effect. One of the constituents of Desmodium adscendens is D-pinitol. […] In this in vivo experiment the preventive effect of a decoction of Desmodium adscendens against liver injury induced by galactosamine was investigated in rats. Silymarin was used as the reference agent. Silymarin is a mixture of various flavanolignans from the fruits of the milk thistle plant, Silybum marianum. The principal components are silybin, […]. In addition, small quantities of isosilybin are present in milk thistle. […] The liver injury and the possible hepato-protective effect were evaluated by determining the following parameters in serum: ALT (=GPT), AST (=GOT), ALP. […] After administration of the hepatotoxic agent D-galactosamine, both after 24 h and after 48 h, liver injury was observed through a marked increase in the three parameters determined (control vs. hepatotox).

[4] = tested on: streptozotocin-induced diabetic rats; conditions: rat, in vivo; cited from earlier work
[5] = tested on: carrageenan-induced oedema of the paw; cotton pellet granuloma; conditions: cited from earlier work
[6] = tested on: streptozotocin-induced diabetic mice; conditions: mouse, in vivo; cited from earlier work
[7] = in vivo; cited from earlier work
foam cells = conditions: cited from earlier work
[8] = tested on: insulin-resistant patients; conditions: 20 mg/kg/day for 4 weeks; cited from earlier work
OVA-induced asthma = conditions: mouse, in vivo; cited from earlier work
L6 rat muscle cells = conditions: cited from earlier work
neutrophils = conditions: cited from earlier work
[9] = tested on: severely insulin-resistant mice; conditions: mouse, in vivo; cited from earlier work
[10] = tested on: liver injury with galactosamine; conditions: after induction of liver injury with galactosamine; cited from earlier work
[11] = tested on: ethanol-induced liver injury; test: protective effect against ethanol-induced liver injury in rats; type: in vivo, male Wistar rats
From the text: The purpose of the experiment is to evaluate the hepatoprotective effects of decoct of Desmodium adscendens against ethanol-induced liver injury, standardized to its primary ingredient: D-pinitol. Materials and Methods: 66 male Wistar rats of 200-225 g (Charles River, Brussels, Belgium) were randomly divided into 6 groups: the negative control group (CON: no hepatotoxic agent, no treatment: 8 rats), the hepatotoxic group (HEP: induction of hepatotoxicity, no treatment: 20 rats), the Desmodium I group (induction of hepatotoxicity, treatment with Desmodium adscendens decoct, equivalent to 2 mg/kg of D-pinitol: 10 rats), the group II Desmodium (induction of hepatotoxicity, treatment with Desmodium adscendens decoct, equivalent to 10 mg/kg of D-pinitol: 10 rats), the D-pinitol group (PIN: induction of hepatotoxicity, treatment with 10 mg/kg of D-pinitol: 10 rats), the positive control group (SIL: induction of hepatotoxicity, treatment with 20 mg/kg of silymarin: 8 rats). 2 days prior to ethanol administration, an appropriate amount of lyophilized decoct, pinitol silymarin or suspended in water and administered by gavage (or vehicle for the control group). Hepatotoxicity was induced by daily oral gavage with a 55% ethanol solution (except for the negative control group). […] Ethanol was administered for a period of 7 weeks. Was administered daily, depending on the group, treated with the specific decoct, pinitol or silymarin (oral gavage) to the end of the experiment. For ethanol administration (default values), and at weeks 3, 4, 5 and 6, blood samples (1.5 ml) were taken from the lateral tail vein (Multi Fat 600, Sarstedt). This experiment was approved by the Ethics Committee for Animal Experiments of the University of Antwerpen (17-01-2011, 2010-37).
A schematic overview of the different treatment groups is given below next. Concentrations of enzyme aspartate transaminase (AST, GOT) and alanine transaminase (ALT, GPT) were in the serum samples from the test animals as determined by routine laboratory techniques (Senior, 2009). Elevated levels can be considered as an indication of liver cell destruction or a change in membrane permeability.
Statistics to analyze the difference between CON and HEP for AST and ALT, and between HEP and DES 1, DES 2, PIN and SIL for AST and ALT, was a mixed model analyze performed. The log-rank test was performed for statistical analysis of survival data.

[12] = tested on: patients with type 2 diabetes; conditions: cited from earlier work
[13] = after 4 weeks of ethanol, daily oral gavage, DES1 eq. 2, DES2 eq. 10 mg/kg D-pinitol, PIN 10 mg/kg, SIL 20 mg/kg
[14] = after 5 weeks of ethanol, daily oral gavage, DES1 eq. 2, DES2 eq. 10 mg/kg D-pinitol, PIN 10 mg/kg, SIL 20 mg/kg
[15] = after 6 weeks of ethanol, daily oral gavage, DES1 eq. 2, DES2 eq. 10 mg/kg D-pinitol, PIN 10 mg/kg, SIL 20 mg/kg
[16] = 13 weeks of treatment with 2×60 mg per day

CO[C@H]1[C@H](O)[C@@H](O)[C@@H](O)[C@H](O)[C@@H]1O [D-pinitol, 3-O-methyl-chiro-inositol]
expression of adiponectin mRNA (3T3-L1 adipocytes; 1 mM): increases expression of adiponectin mRNA
mRNA expression of GLUT4, IRS, PPARγ and C/EBP (3T3-L1 adipocytes; 0.5 and 1 mM): increases the mRNA expression
production of IL-12 and pro-inflammatory cytokines ([1]; LPS-induced): reduces the production
expression of MHC-I, MHC-II, CD80 and CD86 ([1]; in vitro and in vivo): decreases the expression
insulin-mediated glucose metabolism [2]: no effect
ALT (GPT) in serum compared with the hepatotoxic group [3]: decreased significantly
AST (GOT) in serum compared with the hepatotoxic group [3]: decreased significantly
AST, ALT and alkaline phosphatase values in the liver [4]: normalises
blood glucose, haemoglobin and insulin [4]: lowers blood glucose haemoglobin and increases insulin
effect on lipids [4]: lipid-lowering effect
effect against acute inflammation ([5]; carrageenan-induced oedema of the paw): anti-inflammatory properties
effect against subacute inflammation ([5]; cotton pellet granuloma): anti-inflammatory properties
hypoglycaemic effect [6]: acute and chronic hypoglycaemic effect
metabolism in humans [7]: metabolised partly to D-chiro-inositol
formation of foam cells (foam cells): moderately decreases
basal and insulin-mediated glucose or lipid metabolism [8]: no effect
hyperreactivity and inflammation observed in asthma (OVA-induced asthma): reduces
number of inflammatory cells in bronchoalveolar lavage fluid (OVA-induced asthma): decreases
basal uptake of 2-deoxyglucose (L6 rat muscle cells; L6 muscle cells): increases the basal uptake of 2-deoxyglucose
translocation of GLUT4 to the cell membrane (L6 rat muscle cells; L6 rat muscle cells): induces the translocation of GLUT4 to the cell membrane
TNF-alpha expression (neutrophils): inhibits TNF-alpha expression
efficacy [9]: not effective
AST and ALT liver values and TNF-α values [10]: normalises
lipid peroxidation [10]: reduces lipid peroxidation
survival of test animals ([11]; W0, DES1 eq. 2, DES2 eq. 10 mg/kg D-pinitol, PIN 10 mg/kg, SIL 20 mg/kg): 100%
survival of test animals ([11]; W1 of ethanol, DES1 eq. 2, DES2 eq. 10 mg/kg D-pinitol, PIN 10 mg/kg, SIL 20 mg/kg): 100%
survival of test animals ([11]; W2 of ethanol, DES1 eq. 2, DES2 eq. 10 mg/kg D-pinitol, PIN 10 mg/kg, SIL 20 mg/kg): 70%
survival of test animals ([11]; W3 of ethanol, DES1 eq. 2, DES2 eq. 10 mg/kg D-pinitol, PIN 10 mg/kg, SIL 20 mg/kg): 60%
survival of test animals ([11]; W4 of ethanol, DES1 eq. 2, DES2 eq. 10 mg/kg D-pinitol, PIN 10 mg/kg, SIL 20 mg/kg): 60%
survival of test animals ([11]; W5 of ethanol, DES1 eq. 2, DES2 eq. 10 mg/kg D-pinitol, PIN 10 mg/kg, SIL 20 mg/kg): 50%
survival of test animals ([11]; W6 of ethanol, DES1 eq. 2, DES2 eq. 10 mg/kg D-pinitol, PIN 10 mg/kg, SIL 20 mg/kg): 40%
survival of test animals ([11]; W6 of ethanol, DES1 eq. 2, DES2 eq. 10 mg/kg D-pinitol, PIN 10 mg/kg, SIL 20 mg/kg, listed as PIN): 40%
Serum ALT ALT_4 Average [11, 13]: 75.9
Serum AST AST_4 Average [11, 13]: 89.3 U/I
Serum ALT ALT_5 Mean [11, 14]: 61.6
Serum AST AST_5 Average [11, 14]: 78.3 U/I
Serum ALT ALT_6 Mean [11, 15]: 65.6
Serum AST AST_6 Mean [11, 15]: 86.3 U/I
statistical difference in survival vs the hepatotoxic group ([11]; log-rank test, 6 weeks, DES 1 eq. 2, DES 2 eq. 10 mg/kg pinitol, pinitol 10 mg/kg, silymarin 20 mg/kg): No statistically significant difference
HDL cholesterol values [12, 16]: increased
total cholesterol, LDL/HDL ratio and systolic and diastolic blood pressures [12, 16]: decreased
fasting glucose values, HbA1c values and insulin ([12]; human, in vivo): favourable effect
fasting and postprandial glucose values and HbA1c values ([12]; uncontrolled type 2 diabetes, 12 weeks, 20 mg/kg/day, in addition to the usual therapy): improves
levels of adiponectin, leptin, C-reactive protein (CRP) and free fatty acids ([12]; uncontrolled type 2 diabetes, 12 weeks, 20 mg/kg/day): does not significantly change
